Target: T1, human neutrophil elastase (HNE) (Homo sapiens, UniProt P08246)
T1 sequence (P08246 30-267): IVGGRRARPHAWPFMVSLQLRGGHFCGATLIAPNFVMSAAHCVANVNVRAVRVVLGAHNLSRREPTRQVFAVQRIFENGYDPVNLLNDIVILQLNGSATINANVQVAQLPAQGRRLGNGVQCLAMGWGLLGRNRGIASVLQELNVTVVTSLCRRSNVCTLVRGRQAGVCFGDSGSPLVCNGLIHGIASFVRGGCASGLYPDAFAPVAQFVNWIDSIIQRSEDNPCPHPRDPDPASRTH
Experiment: Potency (IC50 determination) against human neutrophil elastase, chromogenic substrate N-methoxysuccinyl-ala-ala-pro-val-pNA, 405 nm
Assay type: biochemical
Settings: pH 7.7, 7 min incubation at room temperature
Method: A) 0.075M sodium phosphate, 20% dimethyl sulfoxide (DMSO),pH 7.7=substrate and inhibitor buffer
B) 0.075M sodium phosphate no DMSO,pH7.7=inhibitor buffer
C) 10 mM human neutrophil elastase (HNE) substrate=N-methoxysuccinyl-ala-ala-pro-val-pNA in DMSO
D) 0.01 sodium acetate, pH 5.5=enzyme buffer (storage)
E) HNE (1 mg) dissolved in 1 mL of […] for storage at -20° C.
Make a 10 mM stock of the inhibitor in DMSO. Dilute an aliquot (10 μL) up to 1.0 mL in reagent A (100 μM). Serially dilute 100 μL of the 100 μM in reagent A. Apply 100 μL of the diluted material to the wells of a 96-well plate. Dilute an aliquot of reagent F 1:150 in reagent D, apply 50 μL aliquots to the indicator wells and incubate 7 minutes at room temperature.
The HNE substrate solution is made by taking 100 μl of reagent C into 500 μL of reagent A and 400 μL of reagent B. After the 7 minutes of incubation, the substrate (50 μL) is applied to each well. The HNE catalyzed reaction is then monitored spectrophotometrically at 405 nm using an ELISA plate reader machine (UVMAX, Molecular Devices) which processes the raw data with an on-board kinetics program. The enzyme activity is plotted against different inhibitor concentrations and IC50 value is determined by using a curve fitting software program.

An IC50 of 253 nM was found for `CC(C)(CSc1ccc(OC(=O)C(C)(C)c2ccc(C(C)(C)C(=O)Oc3ccc(SCC(C)(C)C(=O)O)cc3)cc2)cc1)C(=O)O` [Compound 10] in this work.

An IC50 of 62 nM was found for `CCC(C(=O)Oc1ccc(S(C)(=O)=O)cc1)c1ccc(C(CC)C(=O)Oc2ccc(S(C)(=O)=O)cc2)cc1` (stereo not drawn) [Compound 3] in this work.

An IC50 of 23 nM was found for `CC(C)(C[S+]([O-])c1ccc(OC(=O)C(C)(C)c2ccc(C(C)(C)C(=O)Oc3ccc([S+]([O-])CC(C)(C)C(=O)O)cc3)cc2)cc1)C(=O)O` (stereo not drawn) [Compound 11] in this work.

An IC50 of 64 nM was found for `CCC(C(=O)Oc1ccnc(SC)n1)c1ccc(C(CC)C(=O)Oc2ccnc(SC)n2)cc1` (stereo not drawn) [Compound 28] in this work.

An IC50 of 37 nM was found for `CCC(C(=O)Oc1ccc(S(=O)(=O)C(C)(C)C(=O)O)cc1)c1ccc(C(CC)C(=O)Oc2ccc(S(=O)(=O)C(C)(C)C(=O)O)cc2)cc1` (stereo not drawn) [Compound 9] in this work.

An IC50 of 120 nM was found for `CCC(C(=O)Oc1ccc(SCC(C)(C)C(=O)O)cc1)c1ccc(C(CC)C(=O)Oc2ccc(SCC(C)(C)C(=O)O)cc2)cc1` (stereo not drawn) [Compound 4] in this work.

An IC50 of 224 nM was found for `CCC(C(=O)Oc1ccc([S+](C)[O-])cc1)c1ccc(C(CC)C(=O)Oc2ccc([S+](C)[O-])cc2)cc1` (stereo not drawn) [Compound 2] in this work.

An IC50 of 835 nM was found for `CC(C)(C(=O)Oc1ccc(SCC(=O)O)cc1)c1ccc(C(C)(C)C(=O)Oc2ccc(SCC(=O)O)cc2)cc1` [Compound 13] in this work.

An IC50 of 77 nM was found for `CC(C)(C(=O)Oc1ccc(S(=O)(=O)CC(=O)O)cc1)c1ccc(C(C)(C)C(=O)Oc2ccc(S(=O)(=O)CC(=O)O)cc2)cc1` [Compound 15] in this work.

An IC50 of 36 nM was found for `CCC(C(=O)Oc1ccc(S(=O)(=O)CC(C)(C)C(=O)O)cc1)c1cccc(C(CC)C(=O)Oc2ccc(S(=O)(=O)CC(C)(C)C(=O)O)cc2)c1` (stereo not drawn) [Compound 21] in this work.

An IC50 of 40 nM was found for `CCC(C(=O)Oc1ccc([S+]([O-])CC(C)(C)C(=O)O)cc1)c1ccc(C(CC)C(=O)Oc2ccc([S+]([O-])CC(C)(C)C(=O)O)cc2)cc1` (stereo not drawn) [Compound 5] in this work.

An IC50 of 198 nM was found for `CCC(C(=O)Oc1ccc(SCC(C)(C)C(=O)O)cc1)c1cccc(C(CC)C(=O)Oc2ccc(SCC(C)(C)C(=O)O)cc2)c1` (stereo not drawn) [Compound 19] in this work.

An IC50 of 74 nM was found for `CCC(C(=O)Oc1ccc([S+]([O-])C(C)(C)C(=O)O)cc1)c1ccc(C(CC)C(=O)Oc2ccc([S+]([O-])C(C)(C)C(=O)O)cc2)cc1` (stereo not drawn) [Compound 8] in this work.

An IC50 of 28 nM was found for `CCC(C(=O)Oc1ccc(S(=O)(=O)CC(C)(C)C(=O)O)cc1)c1ccc(C(CC)C(=O)Oc2ccc(S(=O)(=O)CC(C)(C)C(=O)O)cc2)cc1` (stereo not drawn) [Compound 6] in this work.

An IC50 of 8440 nM was found for `CCC(C(=O)Oc1ccc(SC)cc1)c1ccc(C(CC)C(=O)Oc2ccc(SC)cc2)cc1` (stereo not drawn) [Compound 1, Bis(4-Methylmercaptophenyl)2'-(1,4-phenylene)dibutyrate] in this work.

— patent publication US5216022A, “Aromatic esters of phenylenedialkanoates as inhibitors of human neutrophil elastase” (Cortech, Inc., priority 1991, dated 1993)
